This passage reports IC50 results from ChEMBL document CHEMBL5120800, “Lathyrane and Jatrophane Diterpenoids from Euphorbia helioscopia Evaluated for Cytotoxicity against a Paclitaxel-Resistant A549 Human Lung Cancer Cell Line” (J Nat Prod, 2022).

The nature of test [1]: Cytotoxicity against human A549/PTX cells assessed as inhibition of cell growth incubated for 72 hrs by MTT assay. The class given is functional, cell-based. In general terms: Tetrazolium dyes change colour on reduction, which living cells bring about.
Test [2] deals with A549. The test is described as follows: Cytotoxicity against human A549 cells assessed as inhibition of cell growth incubated for 72 hrs by MTT assay. The class given is functional, cell-based. The settings on record: A549, 72 h.

Bounds are passed on as bounds.

For the compound `CC(=O)O[C@]12C[C@@H](C)[C@H](OC(=O)c3ccccc3)[C@@H]1/C=C(\C)[C@H](OC(=O)c1ccccc1)CC(=O)C(C)(C)/C=C/[C@@H](C)C2=O`, the figures for the IC50 in test [1] and in test [2] were 7.2 µM and > 10 µM, respectively. `CC(=O)O[C@@H]1[C@H](C)/C=C/C(C)(C)C(=O)C[C@@H](OC(=O)c2cccnc2)/C(C)=C/[C@H]2[C@@H](OC(=O)c3ccccc3)[C@H](C)C[C@]12OC(C)=O`: the figures for the IC50 in test [1] and in test [2] were 9.5 µM and > 10 µM, respectively. For `CC(=O)O[C@@H]1[C@H](C)/C=C/C(C)(C)C(=O)C[C@@H](OC(=O)c2ccccc2)/C(C)=C/[C@H]2[C@@H](OC(=O)c3ccccc3)[C@H](C)C[C@]12OC(C)=O` [EUPHOSCOPIN C], in that order: 6.9 µM and > 10 µM. With `CC(=O)O[C@H]1C(=O)[C@@]2(C)[C@H]([C@H](OC(=O)c3ccccc3)[C@]3(O)C[C@H](OC(=O)[C@H](O)[C@@H](NC(=O)c4ccccc4)c4ccccc4)C(C)=C1C3(C)C)[C@]1(OC(C)=O)CO[C@@H]1C[C@@H]2O` [PACLITAXEL], the IC50 – broadly, the concentration that inhibits the measured activity by half – in test [2] came to 0.0675 µM.
